{
  "source": "ChEMBL document CHEMBL3108773",
  "about": "“Antihyperglycemic glucosylated coumaroyltyramine derivatives from Teucrium viscidum” (J Nat Prod, 2014)",
  "key": {"HepG2 [1]": {"system": "HepG2", "test": "Cytotoxicity against human HepG2 cells assessed as cell viability up to 30 uM by MTT assay", "assay_type": "cell-based"}, "HepG2 [2]": {"system": "HepG2", "test": "Antihyperglycemic activity in human HepG2 cells assessed as stimulation of glucose consumption at 2 uM after 36 hrs by glucose oxidase assay in presence of high glucose condition relative to control", "assay_type": "functional"}, "[3]": {"test": "Cytotoxicity against mouse 3T3L1 cells assessed as cell viability up to 30 uM by MTT assay", "assay_type": "cell-based", "conditions": "3t3-l1"}, "[4]": {"test": "Antihyperglycemic activity in mouse 3T3L1 cells assessed as stimulation of glucose consumption at 2 uM after 36 hrs by glucose oxidase assay in presence of high glucose condition relative to control", "assay_type": "functional, 3T3-L1"}},
  "data": [
    {"smiles": "COc1ccc(/C=C/C(=O)NCCc2ccc(O[C@@H]3O[C@@H](C)[C@H](OC(C)=O)[C@@H](O[C@@H]4O[C@H](CO)[C@@H](O)[C@H](O)[C@H]4O)[C@H]3O[C@@H]3O[C@H](COC(C)=O)[C@@H](O)[C@H](O)[C@H]3O)cc2)cc1", "values": [
      {"measurement": "Activity", "setting": "HepG2 [1]", "value": "Non-toxic"},
      {"measurement": "fold change (FC)", "setting": "HepG2 [2]", "value": 1.7},
      {"measurement": "Activity", "setting": "[3]", "value": "Non-toxic"},
      {"measurement": "fold change (FC)", "setting": "[4]", "value": 1.6}
    ]},
    {"smiles": "COc1ccc(/C=C/C(=O)NCCc2ccc(O[C@@H]3O[C@@H](C)[C@H](OC(C)=O)[C@@H](O[C@@H]4O[C@H](COC(C)=O)[C@@H](O)[C@H](O)[C@H]4O)[C@H]3O[C@@H]3O[C@H](COC(C)=O)[C@@H](O)[C@H](O)[C@H]3O)cc2)cc1", "values": [
      {"measurement": "Activity", "setting": "HepG2 [1]", "value": "Non-toxic"},
      {"measurement": "fold change (FC)", "setting": "HepG2 [2]", "value": 1.7},
      {"measurement": "Activity", "setting": "[3]", "value": "Non-toxic"},
      {"measurement": "fold change (FC)", "setting": "[4]", "value": 1.6}
    ]},
    {"smiles": "COc1ccc(/C=C/C(=O)NCCc2ccc(O[C@@H]3O[C@@H](C)[C@H](O)[C@@H](O[C@@H]4O[C@H](CO)[C@@H](O)[C@H](O)[C@H]4O)[C@H]3O[C@@H]3O[C@H](CO)[C@@H](O)[C@H](O)[C@H]3O)cc2)cc1", "values": [
      {"measurement": "Activity", "setting": "HepG2 [1]", "value": "Non-toxic"},
      {"measurement": "fold change (FC)", "setting": "HepG2 [2]", "value": 2.2},
      {"measurement": "Activity", "setting": "[3]", "value": "Non-toxic"},
      {"measurement": "fold change (FC)", "setting": "[4]", "value": 2.5}
    ]},
    {"smiles": "COc1ccc(/C=C\\C(=O)NCCc2ccc(O[C@@H]3O[C@@H](C)[C@H](OC(C)=O)[C@@H](O[C@@H]4O[C@H](CO)[C@@H](O)[C@H](O)[C@H]4O)[C@H]3O[C@@H]3O[C@H](COC(C)=O)[C@@H](O)[C@H](O)[C@H]3O)cc2)cc1", "values": [
      {"measurement": "Activity", "setting": "HepG2 [1]", "value": "Non-toxic"},
      {"measurement": "fold change (FC)", "setting": "HepG2 [2]", "value": 1.7},
      {"measurement": "Activity", "setting": "[3]", "value": "Non-toxic"},
      {"measurement": "fold change (FC)", "setting": "[4]", "value": 1.6}
    ]},
    {"smiles": "COc1ccc(/C=C\\C(=O)NCCc2ccc(O[C@@H]3O[C@@H](C)[C@H](OC(C)=O)[C@@H](O[C@@H]4O[C@H](CO)[C@@H](O)[C@H](O)[C@H]4O)[C@H]3O[C@@H]3O[C@H](CO)[C@@H](O)[C@H](O)[C@H]3O)cc2)cc1", "values": [
      {"measurement": "Activity", "setting": "HepG2 [1]", "value": "Non-toxic"},
      {"measurement": "fold change (FC)", "setting": "HepG2 [2]", "value": 2.2},
      {"measurement": "Activity", "setting": "[3]", "value": "Non-toxic"},
      {"measurement": "fold change (FC)", "setting": "[4]", "value": 2.3}
    ]},
    {"smiles": "COc1ccc(/C=C\\C(=O)NCCc2ccc(O[C@@H]3O[C@@H](C)[C@H](OC(C)=O)[C@@H](O[C@@H]4O[C@H](COC(C)=O)[C@@H](O)[C@H](O)[C@H]4O)[C@H]3O[C@@H]3O[C@H](COC(C)=O)[C@@H](O)[C@H](O)[C@H]3O)cc2)cc1", "values": [
      {"measurement": "Activity", "setting": "HepG2 [1]", "value": "Non-toxic"},
      {"measurement": "fold change (FC)", "setting": "HepG2 [2]", "value": 1.7},
      {"measurement": "Activity", "setting": "[3]", "value": "Non-toxic"},
      {"measurement": "fold change (FC)", "setting": "[4]", "value": 1.6}
    ]},
    {"smiles": "COc1ccc(/C=C/C(=O)NCCc2ccc(O[C@@H]3O[C@@H](C)[C@H](OC(C)=O)[C@@H](O[C@@H]4O[C@H](CO)[C@@H](O)[C@H](O)[C@H]4O)[C@H]3O[C@@H]3O[C@H](CO)[C@@H](O)[C@H](O)[C@H]3O)cc2)cc1", "values": [
      {"measurement": "Activity", "setting": "HepG2 [1]", "value": "Non-toxic"},
      {"measurement": "fold change (FC)", "setting": "HepG2 [2]", "value": 2.1},
      {"measurement": "Activity", "setting": "[3]", "value": "Non-toxic"},
      {"measurement": "fold change (FC)", "setting": "[4]", "value": 2.1}
    ]},
    {"smiles": "COc1ccc(/C=C\\C(=O)NCCc2ccc(O[C@@H]3O[C@@H](C)[C@H](O)[C@@H](O[C@@H]4O[C@H](CO)[C@@H](O)[C@H](O)[C@H]4O)[C@H]3O[C@@H]3O[C@H](CO)[C@@H](O)[C@H](O)[C@H]3O)cc2)cc1", "values": [
      {"measurement": "Activity", "setting": "HepG2 [1]", "value": "Non-toxic"},
      {"measurement": "fold change (FC)", "setting": "HepG2 [2]", "value": 1.7},
      {"measurement": "Activity", "setting": "[3]", "value": "Non-toxic"},
      {"measurement": "fold change (FC)", "setting": "[4]", "value": 1.6}
    ]}
  ]
}
